Data published in patent US20060100103A1, “Toning agents for use in thermographic recording materials” (AGFA-GEVAERT, priority 2004, published 2006).

Assay: Solubility in methyl ethyl ketone
Type: physicochemical

Solubility in methyl ethyl ketone | SMILES
>10 wt % | CC1=CC(=O)NS(=O)(=O)O1 [TA02]
5.5 wt % | O=C1CS(=O)(=O)OC2=C1CCCC2 [TA03]
>2 wt % | CN1C(=O)NS(=O)(=O)c2ccccc21 [TA01]
>10 wt % | O=C1NS(=O)(=O)Oc2ccccc21 [TA04]
